Earlier results as cited in publication PMC9890135 (Molecular Cancer Therapeutics, 2022).

Conditions: cited from earlier work

Q: For COc1cc2nccc(Oc3ccc(NC(=O)C4(C(=O)Nc5ccc(F)cc5)CC4)cc3)c2cc1OC [Cabozantinib, cabozantinib], which plasma half-life is on record?
A: Its plasma half-life is “approximately 99 hours”.
